How the values were obtained:
[1] = tested on: CD45RA^+CD25^−CD4^+ T cell line; experiment: Mixed lymphocyte reaction with trans-well, rapamycin-cultured CD45RA^+CD25^−CD4^+ T cell line; format: cell-based, human; settings: rapamycin 20 nM from day 40
Protocol: (§1) CD45RA^+CD25^+CD4^+ T cells or CD45RA^+CD25^−CD4^+ T cells in human peripheral blood separated in the same manner as Example 1 (5×10̂4 cells/well) were stimulated with anti-human CD3 and CD28 conjugate beads in a ratio of 4 beads per cell in a 96-well round-bottomed culture plate containing 200 μl per well of a proliferation medium (AlyS505N (produced by Cell Science & Technology Institute) supplemented with 2% human AB serum) in the presence of human IL-2 (1000 U/ml, produced by Cell Science & Technology Institute). Rapamycin (20 nM, produced by Sigma) was added to the medium 40 days after the start of cultivation. Every 3 to 4 days, half of the medium was replaced with a fresh proliferation medium containing IL-2. If necessary, the cells were separated and repeatedly re-stimulated with anti-CD3/CD28 antibody conjugate beads every 10 to 14 days. Fifty days after the start of cultivation, the cells were collected and used for functional assay.
(§2) Total CD4^+ T cells in peripheral blood were isolated in the same manner as Example 1. […] The culture product was collected, and [3H] thymidine uptake was measured using 1450 Microbeta TriLux (Wallac).

[2] = tested on: CD45RA^+CD25^+CD4^+ T cell line; experiment: Mixed lymphocyte reaction with trans-well, rapamycin-cultured CD45RA^+CD25^+CD4^+ T cell line; format: cell-based, human; settings: rapamycin 20 nM from day 40
Protocol: as §1, §2

[3] = tested on: CD45RA^+CD25^+CD4^+ T cell line; experiment: Suppression assay ([^3H] thymidine uptake) of the rapamycin-cultured CD45RA^+CD25^+CD4^+ T cell line; format: cell-based, human; settings: then 2 days without rapamycin
Protocol: as §1, with “cells” for “cells in human peripheral blood separated in the same manner as Example 1”, “cells/well) separated as described above” for “cells/well)”, “added as appropriate.” for “added to the medium 40 days after the start of cultivation.”, “antibody conjugated” for “antibody conjugate”, “days. […]” for “days. Fifty days after the start of cultivation, the cells were collected and used for functional assay.”
The indicated number of CD45RA^+CD25^+CD4^+ T cells just isolated from human peripheral blood, expanded CD45RA^+CD25^+CD4^+ T cell lines, or expanded CD45RA^+CD25^−CD4^+ T cell line, alone or along with self responder CD4^+ T cells (5×10̂4 cells/well), were stimulated with radiated (40 Gy) allogenic PBMC (1×10̂5 cells/well) in a round-bottomed 96-well microplate containing a proliferation medium. […] Subsequently, the cells were recovered, and [^3H] thymidine uptake was measured using 1450 Microbeta TriLux (Wallac).

[4] = tested on: experimental allergic encephalomyelitis model; settings: model of multiple sclerosis; cited from earlier work
Candida albicans = settings: both in vitro and in vivo, particularly against Candida albicans; cited from earlier work
[5] = conditions that allow cell contact
[6] = contact blocked with the trans-well

## CO[C@H]1C[C@@H]2CC[C@@H](C)[C@@](O)(O2)C(=O)C(=O)N2CCCC[C@H]2C(=O)O[C@H]([C@H](C)C[C@@H]2CC[C@@H](O)[C@H](OC)C2)CC(=O)[C@H](C)/C=C(\C)[C@@H](O)[C@@H](OC)C(=O)[C@H](C)C[C@H](C)/C=C/C=C/C=C/1C [rapamycin]
[1]; [5]
  T cell line's effect on proliferation of total CD4^+ T cells: strongly suppressed
[1]; [6]
  suppression of the proliferation of total CD4^+ T cells by the T cell line: continued to suppress
[2]; [5]
  T cell line's effect on proliferation of total CD4^+ T cells: strongly suppressed
[2]; [6]
  suppression of the proliferation of total CD4^+ T cells by the T cell line: interrupted
[3]; rapamycin added day 7 or day 39, collected 50 days after start
  T cell line's effect on proliferation of CD4^+ T cells in response to alloantigen-presenting cells: strongly suppressed
[3]; rapamycin from day 0, 50 days culture
  T cell line's effect on proliferation of CD4^+ T cells in response to alloantigen-presenting cells: strongly suppressed
[4]
  efficacy in experimental allergic encephalomyelitis model: effective
Candida albicans
  antifungal activity: possess antifungal activity

From patent US20090246212A1, “DEVELOPMENT OF METHOD FOR SCREENING FOR DRUG CAPABLE OF IMPROVING PRODUCTION OF REGULATORY T CELLS AND METHOD FOR PRODUCING REGULATORY T CELLS USING IMMUNOSUPPRESSIVE MACROLIDE ANTIBIOTIC” (KYOTO UNIVERSITY, priority 2005, published 2009)
